Laboratory results published in patent US10610498B2, “Oral veterinary composition with gabapentin” (priority 2015, dated 2020).
Where “and” joins values, the source holds several entries; their conditions need not be identical. Equal values may be shown once. Read-outs that look alike come from different tables or passages of the source.

Key:
[1] = test system: dogs with moderate to severe osteoarthritis; assay: Pain caused by osteoarthritis in dogs, Liverpool Osteoarthritis in Dogs questionnaire; assay type: in vivo; design: scale not given here; settings: Medians±EE
Description: (§1) In addition to the tests performed for the treatment of epilepsy, the effect of gabapentin in the pain treatment in dogs caused by osteoarthritis was evaluated, 30 animals of race, age, weight and variable sex were used, with 3/5 of body condition and clinical and radiological signs from moderate to severe of osteoarthritis, according to the Bioarth scale. Two study groups were formed:
(§2) a) G0-D Group: treated with fluoxetine at dose of 1 mg/Kg of body weight, every 12 hours, orally.
(§3) b) G1-D Group: treated with gabapentin of 1.5-10 mg/Kg of body weight, every 12 hours, orally.
(§4) The dogs were monitored 8 consecutive weeks by applying the questionnaires of the Subjective Clinical Evaluation System, Liverpool Osteoarthritis in Dogs and the Helsinki Chronic Pain Index to the owners of the dogs, before and after administration of the treatments.
The results of the global observations made by the owners with the Liverpool Osteoarthritis in Dogs questionnaire expressed in Medians±EE are presented in Table 3. The Wilcoxon ranks test was performed using the SPSS Statistics program considering statistically significant values for a level of p<0.05.

[2] = test system: dogs with moderate to severe osteoarthritis; assay: Pain caused by osteoarthritis in dogs, Helsinki Chronic Pain Index questionnaire; assay type: in vivo; settings: Medians±EE
Description: as §1, §2, §3, §4
The results of the global observations made by the owners with the Helsinki Chronic Pain Index questionnaire expressed in Medians±EE are presented in Table 3. The Wilcoxon ranks test was performed using the SPSS Statistics program considering statistically significant values for a level of p<0.05.

[3] = test system: dogs with moderate to severe osteoarthritis; assay: Pain caused by osteoarthritis in dogs, Subjective Clinical Evaluation System; assay type: in vivo; settings: for Subjective Clinical Evaluation System, global observations: Medians±EE; for Result for the pain treatment (different pain assessment questionnaires): dogs with osteoarthritis, oral, every 12 hours, 8 weeks
Description: as §1, §2, §3, §4
The Subjective Clinical Evaluation System includes the following evaluation points:
3) Mobility of the affected joint: (0) No limitation of movement and no crepitus is palpable, (1) slight decrease in range of motion (10-20%), no crepitus is palpable, (2) slight decrease in range of motion (10-20%) with palpable crepitation, (3) moderate decrease in range of motion (20-50%) and (4) severe decrease in range of motion (>50%) with palpable crepitus.
4) Hold the contralateral limb high: (0) quickly accept to raise the contralateral limb, (1) offer resistance to the contralateral limb elevation, but maintain its weight on the affected limb for more than one minute, (2) offer moderate resistance to the elevation of the contralateral limb and replaces it after 30 seconds, (3) it offers resistance to the elevation of the contralateral limb and replaces it after 10 seconds and (4) refuses to elevate the contralateral limb.
Statistically significant values were considered for a level of p<0.05.

[4] = test system: dogs diagnosed with idiopathic epilepsy; assay: Efficacy of gabapentin vs phenobarbital against idiopathic epilepsy in dogs (seizure episodes, adverse effects); assay type: in vivo; settings: for Seizure number per month prior to the study: baseline; for Seizure number per month prior to the study / Changes in the type of seizure / Clinical adverse effects observed / Seizure number per month after the study: individual dogs; for Seizure number per month after the study: monitored 3 months
Description: a) G0-E Group: treated with phenobarbital at dose of 2 mg/Kg of body weight, every 12 hours.
b) G1-E Study Group: treated with gabapentin of 10 mg/Kg of body weight, divided 3 times a day by oral administration.
c) G2-E Study Group: treated with gabapentin of 20 mg/Kg of body weight, divided 3 times a day by oral administration.
Patients were monitored for 3 consecutive months, quantifying seizure episodes for each of the patients, obtaining the following: […]

[5] = horses; 5 mg/Kg oral; cited from earlier work
[6] = horses, cited from earlier work
calf dehorning = settings: gabapentin 15 mg/Kg oral, alone or with meloxicam; cited from earlier work
[7] = reported in dogs; cited from earlier work
neuropathic pain = settings: individually, maximum effect at 60 minutes post-treatment, cited from earlier work
dogs [8] = settings: cited from earlier work
plasma proteins = settings: cited from earlier work
cats [9] = settings: for 10 and 12 days; cited from earlier work
dogs [10] = settings: cited from earlier work; remark: listed apart in the source
cats [11] = settings: cited from earlier work
horses = settings: 2 g/12 h/IV for 8 days; cited from earlier work
[12] = G0-D, fluoxetine 1 mg/Kg every 12 hours orally, WEEK 0
[13] = G0-D, fluoxetine 1 mg/Kg every 12 hours orally, WEEK 1
[14] = G0-D, fluoxetine 1 mg/Kg every 12 hours orally, WEEK 2
[15] = G0-D, fluoxetine 1 mg/Kg every 12 hours orally, WEEK 3
[16] = G0-D, fluoxetine 1 mg/Kg every 12 hours orally, WEEK 4
[17] = G0-D, fluoxetine 1 mg/Kg every 12 hours orally, WEEK 5
[18] = G0-D, fluoxetine 1 mg/Kg every 12 hours orally, WEEK 6
[19] = G0-D, fluoxetine 1 mg/Kg every 12 hours orally, WEEK 7
[20] = G0-D, fluoxetine 1 mg/Kg every 12 hours orally, WEEK 8
[21] = G1-E, gabapentin 10 mg/Kg divided 3 times a day, oral
[22] = G2-E, gabapentin 20 mg/Kg divided 3 times a day, oral
[23] = G1-D, gabapentin 1.5-10 mg/Kg every 12 hours orally, WEEK 0
[24] = G1-D, gabapentin 1.5-10 mg/Kg every 12 hours orally, WEEK 1
[25] = G1-D, gabapentin 1.5-10 mg/Kg every 12 hours orally, WEEK 2
[26] = G1-D, gabapentin 1.5-10 mg/Kg every 12 hours orally, WEEK 3
[27] = G1-D, gabapentin 1.5-10 mg/Kg every 12 hours orally, WEEK 4
[28] = G1-D, gabapentin 1.5-10 mg/Kg every 12 hours orally, WEEK 5
[29] = G1-D, gabapentin 1.5-10 mg/Kg every 12 hours orally, WEEK 6
[30] = G1-D, gabapentin 1.5-10 mg/Kg every 12 hours orally, WEEK 7
[31] = G1-D, gabapentin 1.5-10 mg/Kg every 12 hours orally, WEEK 8
[32] = G0-E, phenobarbital 2 mg/Kg every 12 hours

SMILES: CNCCC(Oc1ccc(C(F)(F)F)cc1)c1ccccc1 (centres unmarked) [Fluoxetine]
- Liverpool Osteoarthritis in Dogs questionnaire [1, 12]: 26 ± 2.2
- Liverpool Osteoarthritis in Dogs questionnaire [1, 13]: 23.5 ± 5.4
- Liverpool Osteoarthritis in Dogs questionnaire [1, 14]: 26 ± 5.19
- Liverpool Osteoarthritis in Dogs questionnaire [1, 15]: 22.5 ± 4.52
- Liverpool Osteoarthritis in Dogs questionnaire [1, 16]: 22.5 ± 4.38
- Liverpool Osteoarthritis in Dogs questionnaire [1, 17]: 23 ± 2.95
- Liverpool Osteoarthritis in Dogs questionnaire [1, 18]: 23 ± 2.56
- Liverpool Osteoarthritis in Dogs questionnaire [1, 19]: 22.5 ± 1.95
- Liverpool Osteoarthritis in Dogs questionnaire [1, 20]: 20.5 ± 1.35
- Helsinki Chronic Pain Index questionnaire [2, 12]: 21.5 ± 2.43
- Helsinki Chronic Pain Index questionnaire [2, 13]: 20.5 ± 3.66
- Helsinki Chronic Pain Index questionnaire [2, 14]: 20 ± 3.1
- Helsinki Chronic Pain Index questionnaire [2, 15]: 15.5 ± 3.1
- Helsinki Chronic Pain Index questionnaire [2, 16]: 15.5 ± 2.56
- Helsinki Chronic Pain Index questionnaire [2, 17]: 15 ± 1.54
- Helsinki Chronic Pain Index questionnaire [2, 18]: 14 ± 2.35
- Helsinki Chronic Pain Index questionnaire [2, 19]: 13.5 ± 1.55
- Helsinki Chronic Pain Index questionnaire [2, 20]: 13.5 ± 1.41
- Subjective Clinical Evaluation System, global observations [3, 12]: 8.5 ± 0.51
- Subjective Clinical Evaluation System, global observations [3, 16]: 8.5 ± 1.19
- Subjective Clinical Evaluation System, global observations [3, 20]: 8 ± 1.79
- Result for the pain treatment (different pain assessment questionnaires) [3]: significantly favorable

SMILES: NCC1(CC(=O)O)CCCCC1 [Gabapentin]
- Reduction of seizures ([4]; 10 mg/kg oral, month 3 of treatment, best result of the doses evaluated): significant reduction of seizures
- Seizure number per month prior to the study [4, 21]: 11 and 4 and 5 (2×) and 8 and 10 and 6 and 1 and 3 and 9
- Changes in the type of seizure [4, 21]: NONE (6×) and PARTIAL CONVULSIONS (4×)
- Clinical adverse effects observed [4, 21]: NONE (9×) and LIGHT SEDATION
- Seizure number per month after the study [4, 21]: 0 (7×) and RESCUED (2×) and 1
- Seizure number per month prior to the study [4, 22]: 8 (3×) and 2 (2×) and 12 and 6 and 4 (2×) and 3
- Changes in the type of seizure [4, 22]: PARTIAL CONVULSIONS (3×) and NONE (4×) and CLONIC TONIC (3×)
- Clinical adverse effects observed [4, 22]: LIGHT SEDATION (3×) and NONE (6×) and SOMNOLENCE
- Seizure number per month after the study [4, 22]: 2 (2×) and 0 (4×) and 1 (2×) and RESCUED and 3
- half-life [5]: 3.4 h
- half-life ([6]; 20 mg/kg IV): 8.5 h
- half-life ([6]; 20 mg/kg p.o.): 7.7 h
- Liverpool Osteoarthritis in Dogs questionnaire [1, 23]: 27 ± 2.85
- Liverpool Osteoarthritis in Dogs questionnaire [1, 24]: 24 ± 2.26
- Liverpool Osteoarthritis in Dogs questionnaire [1, 25]: 22 ± 2.35
- Liverpool Osteoarthritis in Dogs questionnaire [1, 26]: 23 ± 3.15
- Liverpool Osteoarthritis in Dogs questionnaire [1, 27]: 22 ± 3.56
- Liverpool Osteoarthritis in Dogs questionnaire [1, 28]: 26 ± 3.15
- Liverpool Osteoarthritis in Dogs questionnaire [1, 29]: 26 ± 2.86
- Liverpool Osteoarthritis in Dogs questionnaire [1, 30]: 23 ± 2.67
- Liverpool Osteoarthritis in Dogs questionnaire [1, 31]: 20 ± 2.35
- average daily gain compared to the control (calf dehorning): significantly decreases
- concentration of substance P compared to the control (calf dehorning): significantly decreases
- half-life [7]: 3.4 h
- Helsinki Chronic Pain Index questionnaire [2, 23]: 22 ± 1.75
- Helsinki Chronic Pain Index questionnaire [2, 24]: 15 ± 3.23
- Helsinki Chronic Pain Index questionnaire [2, 25]: 20 ± 2.87
- Helsinki Chronic Pain Index questionnaire [2, 26]: 15 ± 3.06
- Helsinki Chronic Pain Index questionnaire [2, 27]: 18 ± 2.98
- Helsinki Chronic Pain Index questionnaire [2, 28]: 17 ± 3.68
- Helsinki Chronic Pain Index questionnaire [2, 29]: 18 ± 3.03
- Helsinki Chronic Pain Index questionnaire [2, 30]: 18 ± 2.8
- Helsinki Chronic Pain Index questionnaire [2, 31]: 16 ± 2.42
- antihyperalgesic effect (neuropathic pain; gabapentin 17.8 mg/Kg subcutaneously): 55%
- Subjective Clinical Evaluation System, global observations [3, 23]: 9 ± 0.86
- Subjective Clinical Evaluation System, global observations [3, 27]: 4 ± 1.02
- Subjective Clinical Evaluation System, global observations [3, 31]: 6 ± 0.73
- Result for the pain treatment (different pain assessment questionnaires) [3]: significantly favorable

SMILES: CCC1(c2ccccc2)C(=O)NC(=O)NC1=O [Phenobarbital, phenobarbital]
- Seizure number per month prior to the study [4, 32]: 3 and 11 and 13 and 2 (3×) and 8 and 7 and 10 and 1
- Clinical adverse effects observed [4, 32]: NONE (6×) and HYPER- and LIGHT SEDATION (3×)
- Seizure number per month after the study [4, 32]: 0 (5×) and 4 and 1 (4×)

SMILES: CC(=O)Oc1ccccc1C(=O)O [acetylsalicylic acid]
- dose at which vomiting and gastric ulcers have been described (dogs [8]; intake for 1 week): greater than 50 mg/kg/24 h
- dose at which vomiting and gastric ulcers have been described (dogs [8]; intake for 4 weeks): > 100 mg/kg/24 h
- bound to plasma proteins (plasma proteins): 90%
- toxic dose (cats [9]): 80-120 mg/Kg/24 h

SMILES: CN1CC[C@]23c4c5ccc(O)c4O[C@H]2[C@@H](O)C=C[C@H]3[C@H]1C5 [morphine]
- antihyperalgesic effect (neuropathic pain; morphine 3.2 mg/Kg subcutaneously): 51.7%

SMILES: CC(=O)Nc1ccc(O)cc1 [paracetamol]
- toxic dose (dogs [10]): 150 mg/kg
- toxic dose (cats [11]): 50 mg/kg

SMILES: CCCCC1C(=O)N(c2ccccc2)N(c2ccccc2)C1=O [phenylbutazone]
- adverse effects of claudication treatment (horses): gastric ulcers and necrotizing colitis with protein loss
